One data set addresses T1, ABCG2 (Homo sapiens, UniProt Q9UNQ0).
T1 construct: monolayers of Caco-2 cells expressing ABCG2 were grown on a permeable support; endogenous in cells; host or cells: Caco-2
T1 sequence (Q9UNQ0 1-655): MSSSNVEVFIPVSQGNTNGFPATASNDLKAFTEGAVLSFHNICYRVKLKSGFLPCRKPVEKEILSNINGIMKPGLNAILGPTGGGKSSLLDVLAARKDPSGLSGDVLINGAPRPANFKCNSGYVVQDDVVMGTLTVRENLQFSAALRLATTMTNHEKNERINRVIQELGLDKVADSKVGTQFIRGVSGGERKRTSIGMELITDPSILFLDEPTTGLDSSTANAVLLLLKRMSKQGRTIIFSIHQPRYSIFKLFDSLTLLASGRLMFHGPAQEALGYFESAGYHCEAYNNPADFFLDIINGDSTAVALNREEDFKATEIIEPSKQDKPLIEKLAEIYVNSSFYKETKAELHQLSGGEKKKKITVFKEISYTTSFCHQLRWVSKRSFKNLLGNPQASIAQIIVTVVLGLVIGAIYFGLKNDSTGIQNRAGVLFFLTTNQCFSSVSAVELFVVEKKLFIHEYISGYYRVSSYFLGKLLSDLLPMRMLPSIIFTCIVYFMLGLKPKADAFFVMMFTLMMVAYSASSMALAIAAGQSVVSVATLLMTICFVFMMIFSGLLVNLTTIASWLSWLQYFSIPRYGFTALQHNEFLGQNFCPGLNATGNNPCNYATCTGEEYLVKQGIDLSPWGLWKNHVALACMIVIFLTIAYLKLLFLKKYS
Nature of the data set: ABCG2 genistein net B→A flux in Caco-2 monolayers. It counts as cell-based. On the procedure:
For ABCG2, monolayers of Caco-2 cells expressing ABCG2 were grown on a permeable support ([…] membranes) in 24-transwell plates. […] Each treatment was assayed in triplicate: [^3H]-genistein substrate at 2 nM was then added for an additional 120 minutes at 37 °C. For basolateral-to-apical (B → A) flux measurements, genistein was placed in the basolateral compartment only (donor well) and a sample was taken after the 120-minute incubation period from the apical compartment (receiver well). For apical-to-basolateral (A → B) flux measurements, genistein was placed in the apical compartment only (donor well) and a sample was taken after the 120-minute incubation period from the basolateral compartment (receiver well). Samples were then subjected to scintillation counting. The inhibition of BCRP/ABCG2 was then calculated by the net B → A flux method. […]
The net transport in the B → A direction was determined by subtracting the substrate flux in the A → B direction from that in the B → A direction: NetB→Aflux=PappB→A‐PappA→B.
Percent inhibition is calculated by dividing the Net (B → A) flux in the presence of the inhibitor by the Net (B → A) flux in the absence of the inhibitor (inh): PercentInhibition=100‐100*NetB→Ainh/meanNetB→A.

The test system of the next data set is HepG2 cells. Nature of the data set: Mitochondrial toxicity assay (JC-1 mitochondrial membrane potential). The class given is cell-based, human. The following applies: HepG2, highest concentration tested 33 μM. On the procedure:
HepG2 cells were counted via hemocytometer and diluted into equal volumes of serum-free Opti-MEM (Life Technologies) and JC-1 Staining Solution (Sigma catalog number CS0390) at 300,000 cells/mL in the presence of 2.5 μg/mL JC-1. Cells were incubated at 37 °C and 5 % CO2 for 20 minutes, rinsed once with Hank's Balanced Salt Solution, and resuspended to the same concentration in serum-free Opti-MEM. Cells were then seeded into 96-well black-sided clear-bottom tissue culture plates at 30,000 cells/100 μL/well. Three replicates per experimental condition group were used. Compound was added with the final dimethyl sulfoxide (DMSO) concentration at 0.5 %. After 2 hours at 37 °C and 5 % CO2, medium was aspirated and plates were read on a Gemini EM spectrofluorometer (Molecular Devices). Fluorescence of JC-1 monomers was monitored by excitation at 490 nm and emission at 530 nm (green) and of aggregates by excitation at 525 nm and emission at 590 nm (red). The ratio of J-aggregates to monomers was calculated, with a lower ratio indicating increased cell toxicity. The percent change in mitochondrial membrane potential (Ψm) was calculated as follows: […]

Data set [1] has as its system healthy volunteers. Nature of the data set: Clinical effect on fractional excretion of uric acid (phase 1 RDEA594-109). The class given is in vivo, human. The following applies: for Peak FEUA: within 6 hours, baseline 5.8 %. On the procedure:
(§1) In each treatment period, plasma samples were collected within 30 minutes before dosing (pre-dose) and at 0.5, 1, 1.5, 2, 3, 4, 5, 6, 8, 10, 12, 16, 24, 30, 36, and 48 hours post-dose. Urine (total catch) was collected pretreatment at hours –24 to –18, –18 to –12, and –12 to 0, and post-dose at hours 0 to 6, 6 to 12, 12 to 24, 24 to 30, 30 to 36, and 36 to 48.
After protein precipitation of the samples, lesinurad levels in plasma and urine were measured at Ardea Biosciences by quantitative high performance liquid chromatography with tandem mass spectrometry. […] The parameters from individual profiles of lesinurad were determined using noncompartmental methods. Urine samples were analyzed for uric acid and creatinine using enzymatic methods by Covance Clinical Research Unit (Dallas, TX, USA), and pharmacodynamic (PD) parameters were determined by Covance Clinical Research Unit using SAS, Version 8.2 (SAS Institute Inc). Calculated PD parameters for uric acid included urinary excretion, renal clearance, and FEUA. FEUA was calculated by dividing the uric acid clearance by the creatinine clearance.

Data set [2] has as its system healthy volunteers. Nature of the data set: Clinical effect on serum uric acid (phase 1 RDEA594-109). It counts as in vivo, human. On the procedure:
as §1
Serum was collected within 30 minutes prior to drug administration, and at 6, 12, 16, 24, 30, 36, and 48 hours after dosing. Serum urate levels and PD parameters were assayed and calculated by Covance Clinical Research Unit as described above.

The subject of the next data set is OAT1 and OAT3. The following applies: in vivo; cited from earlier work.
[3] abbreviates: single 200-mg dose, after 6 hours, p < 0.001.

Consider `O=C(O)CSc1nnc(Br)n1-c1ccc(C2CC2)c2ccccc12` [Lesinurad, 2-((5-bromo-4-(4-cyclopropylnaphthalen-1-yl)-4H-1,2,4-triazol-3-yl)thio) acetic acid], for which the IC50 on ABCG2 (Caco-2, 2 nM [3H]-genistein, 120 min, read-out: Potency against ABCG2) was > 100 µM. In addition, the “Effect on ABCG2 activity” value at ABCG2 (Caco-2, at up to 100 μM) is “no effect”. Further, the Mitochondrial toxicity entry in the data set on HepG2 cells was “no mitochondrial toxicity”. Further, the EC50 with healthy volunteers [1] (Homo sapiens, single 200-, 400- or 600-mg doses, healthy volunteers, read-out: Half-maximal effective plasma concentration for elevating FEUA) was 13 µM. Also, the “FEUA in some individuals with high plasma lesinurad” value in the data set with healthy volunteers [1] (healthy volunteers, single doses) is reported as “up to 35%”. Moreover, the “Elevation of FEUA” value with healthy volunteers [1] (setting [3]) worked out at 3.6 fold. The entries for the “Peak FEUA” value in the data set on healthy volunteers [1] (single 200-mg oral dose), in the data set with healthy volunteers [1] (single 400-mg oral dose) and in the data set with healthy volunteers [1] (single 600-mg oral dose) were 21.8%, 26.7% and 32.3%, respectively. Also, the “Reduction of sUA” value with healthy volunteers [2] (setting [3]) turned out to be 33%; in the data set with healthy volunteers [2] (single 600-mg dose, after 24 hours) it was 31%. In addition, the “Maximum reduction of sUA” value with healthy volunteers [2] (single 600-mg dose, after 6 hours) was found to be 42%. Also, the “Effect on renal clearance and PD of the OAT substrate furosemide” value in the data set on OAT1 and OAT3 is “no effect”.

Values taken from article PMC5048659 (Arthritis Research & Therapy, 2016).
